Assay results taken from patent US8871756B2 (Hoffmann-La Roche Inc., priority 2011, dated 2014).

System: RSV Long strain
Assay: Viral cytopathic effect (CPE) assay, anti-RSV activity
Assay type: cell-based, Respiratory Syncytial Virus
Conditions: human respiratory syncytial virus, 144 h, RSV Long strain (ATCC); cell viability after 6 days, Cell Counting kit-8
Method in brief: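 EC50 was derived from CCK-8 viability at 450/630 nm measured 6 days post-infection. Infection used enough RSV Long strain for approximately 80–90% cytopathic effect, in the presence of half-log serially diluted compound. Cells were plated the day before at 6×10^3 per well in DMEM/10% FBS.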

| EC50 [µM] | Compound |
| --- | --- |
| 0.184 | Cc1ccc2nc(N3CCS(=O)(=O)c4ccccc4C3)cc(NC(=O)c3cccnn3)c2c1 [Example 3-58, N-[2-(1,1-Dioxido-2,3-dihydro-1,4-benzothiazepin-4(5H)-yl)-6-methylquinolin-4-yl]pyridazine-3-carboxamide] |
| 1.08 | Cc1ccc2nc(N3CCS(=O)(=O)c4ccccc4C3)cc(NC(=O)c3ccccc3)c2c1 [Example 3-59, N-[2-(1,1-Dioxido-2,3-dihydro-1,4-benzothiazepin-4(5H)-yl)-6-methylquinolin-4-yl]benzamide] |
| 0.118 | Cc1ccc2nc(N3CCS(=O)(=O)c4ccccc4C3)cc(NC(=O)C3CCCNC3)c2c1 (stereo not shown) [Example 3-61, N-[2-(1,1-Dioxido-2,3-dihydro-1,4-benzothiazepin-4(5H)-yl)-6-methylquinolin-4-yl]piperidine-3-carboxamide] |
| 0.269 | NC1(CNc2cc(N3CCSc4ccccc4C3)nc3ccc(Cl)cc23)COC1 [Example 4-1, N-[(3-Aminooxetan-3-yl)methyl]-6-chloro-2-(2,3-dihydro-1,4-benzothiazepin-4(5H)-yl)quinolin-4-amine] |
| 0.098 | NCCNc1cc(N2CCSc3ccccc3C2)nc2ccc(Cl)cc12 [Example 4-2, N-[6-Chloro-2-(2,3-dihydro-1,4-benzothiazepin-4(5H)-yl)quinolin-4-yl]ethane-1,2-diamine] |
| 0.208 | Cc1ccc2nc(N3CCSc4ccccc4C3)cc(N3CCC(N)C3)c2c1 (stereo not shown) [Example 4-4, 1-[2-(2,3-Dihydro-1,4-benzothiazepin-4(5H)-yl)-6-methylquinolin-4-yl]pyrrolidin-3-amine] |
| 9.2 | Cc1ccc2nc(N3CCS(=O)(=O)c4ccccc4C3)cc(NCCN3CCS(=O)(=O)CC3)c2c1 [Example 5-1, 2-(1,1-Dioxido-2,3-dihydro-1,4-benzothiazepin-4(5H)-yl)-N-[2-(1,1-dioxidothiomorpholin-4-yl)ethyl]-6-methylquinolin-4-amine] |
| 0.326 | CC(C)(N)CNc1cc(N2CCS(=O)(=O)c3ccccc3C2)nc2ccccc12 [Example 5-4, N˜1˜-[2-(1,1-Dioxido-2,3-dihydro-1,4-benzothiazepin-4(5H)-yl)quinolin-4-yl]-2-methylpropane-1,2-diamine] |
| 2.06 | Cc1ccc2nc(N3CCS(=O)(=O)c4ccccc4C3)cc(N3CCN(C)CC3)c2c1 [Example 5-6, 4-[6-Methyl-4-(4-methylpiperazin-1-yl)quinolin-2-yl]-2,3,4,5-tetrahydro-1,4-benzothiazepine 1,1-dioxide] |
| 0.397 | Cc1cc2c(NCC3(N)COC3)cc(N3CCS(=O)(=O)c4ccccc4C3)nc2c(F)c1F [Example 5-10, N-[(3-Aminooxetan-3-yl)methyl]-2-(1,1-dioxido-2,3-dihydro-1,4-benzothiazepin-4(5H)-yl)-7,8-difluoro-6-methylquinolin-4-amine] |
| 0.526 | Cc1ccc2nc(N3CCS(=O)(=O)c4ccccc4C3)cc(NCCNCC(F)F)c2c1 [Example 5-11, N-(2,2-Difluoroethyl)-N′-[2-(1,1-dioxido-2,3-dihydro-1,4-benzothiazepin-4(5H)-yl)-6-methylquinolin-4-yl]ethane-1,2-diamine] |
| 0.025 | Cc1ccc2nc(N3CCS(=O)(=O)c4ccccc4C3)cc(NCC3(CN)CSC3)c2c1 [Example 6-1, N-{[3-(Aminomethyl)thietan-3-yl]methyl}-2-(1,1-dioxido-2,3-dihydro-1,4-benzothiazepin-4(5H)-yl)-6-methylquinolin-4-amine] |

The remaining lines, values behind:

| Compound | EC50 [µM] |
| --- | --- |
| CC(=O)Nc1cc(N2CCS(=O)(=O)c3ccccc3C2)nc2ccc(C)cc12 [Example 3-60, N-[2-(1,1-Dioxido-2,3-dihydro-1,4-benzothiazepin-4(5H)-yl)-6-methylquinolin-4-yl]acetamide] | 0.617 |
| Cc1ccc2nc(N3CCS(=O)(=O)c4ccccc4C3)cc(NC(=O)C3CCNCC3)c2c1 [Example 3-62, N-[2-(1,1-Dioxido-2,3-dihydro-1,4-benzothiazepin-4(5H)-yl)-6-methylquinolin-4-yl]piperidine-4-carboxamide] | 0.589 |
| Cc1ccc2nc(N3CCS(=O)(=O)c4ccccc4C3)cc(NC(=O)N(C)C)c2c1 [Example 3-63, 3-[2-(1,1-Dioxido-2,3-dihydro-1,4-benzothiazepin-4(5H)-yl)-6-methylquinolin-4-yl]-1,1-dimethylurea] | 9.9 |
| Cc1ccc2nc(N3CCS(=O)(=O)c4ccccc4C3)cc(Nc3ccon3)c2c1 [Example 3-64, 2-(1,1-Dioxido-2,3-dihydro-1,4-benzothiazepin-4(5H)-yl)-6-methyl-N-(1,2-oxazol-3-yl)quinolin-4-amine] | 0.874 |
| [2H]C([2H])([2H])c1ccc2nc(N3CCS(=O)(=O)c4ccccc4C3)cc(NCC3(CN)COC3)c2c1 [Example 3-65, N-{[3-(Aminomethyl)oxetan-3-yl]methyl}-2-(1,1-dioxido-2,3-dihydro-1,4-benzothiazepin-4(5H)-yl)-6-trideuteriomethylquinolin-4-amine] | 0.002 |
| Cc1ccc2nc(N3CCSc4ccccc4C3)cc(NCC3(N)COC3)c2c1 [Example 4-3, N-[(3-Aminooxetan-3-yl)methyl]-2-(2,3-dihydro-1,4-benzothiazepin-4(5 H)-yl)-6-methylquinolin-4-amine] | 0.026 |
| Cc1ccc2nc(N3CCS(=O)(=O)c4ccccc4C3)cc(NCCOCCN)c2c1 [Example 5-2, N-[2-(2-Aminoethoxy)ethyl]-2-(1,1-dioxido-2,3-dihydro-1,4-benzothiazepin-4(5H)-yl)-6-methylquinolin-4-amine] | 0.211 |
| Cc1ccc2nc(N3CCS(=O)(=O)c4ccccc4C3)cc(NCC(C)(C)N)c2c1 [Example 5-3, N˜1˜-[2-(1,1-Dioxido-2,3-dihydro-1,4-benzothiazepin-4(5H)-yl)-6-methylquinolin-4-yl]-2-methylpropane-1,2-diamine] | 0.015 |
| Cc1ccc2nc(N3CCS(=O)(=O)c4ccccc4C3)cc(NCC(C)N)c2c1 (stereo not shown) [Example 5-5, N˜1˜-[2-(1,1-Dioxido-2,3-dihydro-1,4-benzothiazepin-4(5H)-yl)-6-methylquinolin-4-yl]propane-1,2-diamine] | 0.014 |
| Cc1ccc2nc(N3CCS(=O)(=O)c4ccccc4C3)cc(NCC(C)O)c2c1 (stereo not shown) [Example 5-7, 1-{[2-(1,1-Dioxido-2,3-dihydro-1,4-benzothiazepin-4(5H)-yl)-6-methylquinolin-4-yl]amino}propan-2-ol] | 0.941 |
| Cc1ccc2nc(N3CCS(=O)(=O)c4ccccc4C3)cc(NC[C@H](C)N)c2c1 [Example 5-8, (2S)—N˜1˜-[2-(1,1-Dioxido-2,3-dihydro-1,4-benzothiazepin-4(5H)-yl)-6-methylquinolin-4-yl]propane-1,2-diamine] | 0.022 |
| Cc1ccc2nc(N3CCS(=O)(=O)c4ccccc4C3)cc(NC[C@@H](C)N)c2c1 [Example 5-9, (2R)—N˜1˜-[2-(1,1-Dioxido-2,3-dihydro-1,4-benzothiazepin-4(5H)-yl)-6-methylquinolin-4-yl]propane-1,2-diamine] | 0.018 |
| Cc1ccc2nc(N3CCS(=O)(=O)c4ccccc4C3)cc(NC3(CCO)COC3)c2c1 [Example 5-12, 3-{[2-(1,1-Dioxido-2,3-dihydro-1,4-benzothiazepin-4(5H)-yl)-6-methylquinolin-4-yl]amino}oxetan-3-ethanol] | 6.25 |
